# Assay results taken from ChEMBL document CHEMBL3091278 (Bioorg Med Chem Lett, 2013).
# Test: Inhibition of Clostridium perfringens carbonic anhydrase preincubated for 15 mins by stopped flow CO2 hydration assay
row,Structure (SMILES),Ki
1,[Br-].[Na+] [SODIUM BROMIDE],21.5 mM
2,O=[As](O)(O)c1ccccc1 [PHENYLARSONIC ACID],0.007 mM
3,CC(=O)Nc1nnc(S(N)(=O)=O)s1 [ACETAZOLAMIDE],4.9e-05 mM
4,[Cl-].[Na+] [SODIUM CHLORIDE],4.3 mM
5,O=[N+]([O-])[O-].[Na+] [SODIUM NITRATE],4.6 mM
6,S [SODIUM HYDROSULFIDE],4 mM
7,OB(O)c1ccccc1 [PHENYLBORONIC ACID],0.075 mM
8,O=BOB(O)OB(O)OB=O [SODIUM TETRABORATE],2.5 mM
9,O=NO [SODIUM NITRITE],4.1 mM
10,[N-]=[N+]=[N-] [SODIUM AZIDE],4.2 mM
11,S=C(S)S [SODIUM CARBONOTRITHIOATE],1 mM
12,[F-].[Na+] [SODIUM FLUORIDE],4.8 mM
13,O=P(O)(O)OP(=O)(O)O [SODIUM PYROPHOSPHATE],2.7 mM
14,O=S(=O)([O-])[O-].[Na+].[Na+] [SODIUM SULFATE ANHYDROUS],7.9 mM
15,O=S(=O)(O)OOS(=O)(=O)O [SODIUM PERSULFATE],9.2 mM
16,O=[Se](=O)(O)O [SODIUM SELENATE],0.47 mM
17,CCN(CC)C(=S)S [DITIOCARB SODIUM],0.36 mM
18,O=C([O-])[O-].[Na+].[Na+] [SODIUM CARBONATE],0.65 mM
19,[O-][Cl+3]([O-])([O-])O [SODIUM PERCHLORATE],> 200 mM
20,N=C=S [SODIUM ISOTHIOCYANATE],0.83 mM
21,O=S([O-])O.[Na+] [SODIUM BISULFITE],4.9 mM
22,[I-].[Na+] [SODIUM IODIDE],63.4 mM
23,NS(=O)(=O)O [SULFAMATE],0.009 mM
24,O=C([O-])O.[Na+] [SODIUM BICARBONATE],2.1 mM
25,O=[Te](=O)(O)O [SODIUM TELLURATE],3.3 mM
26,O=S(=O)(O)ONOS(=O)(=O)O [SODIUM IMINODISULFATE],4.9 mM
27,F[B-](F)(F)F.[Na+] [SODIUM TETRAFLUOROBORATE],> 200 mM
